Data set [1] is described as follows: Reduction versus oxidation standard potentials (anhydrous DMSO). In kind it is physicochemical. The settings on record: relative to CuPhMeTSM; FIG. 3. The source says: The low reduction potential or, phrased differently, the high copper affinity of the ATSM ligand for cupric ion (in the 2+ ionization state) prevents copper release in most tissues, but allows selective release of copper in hypoxic tissues or in cells with damaged mitochondrial electron transport chains; however, even slight modifications of the CuATSM compound (e.g., removing one or both methyl groups from the carbon atoms of the diimine functional groups) results in rapid copper release that can result in toxicity in SOD ALS models. […] Continued treatment thus is necessary to provide sufficient copper for CCS to complete the maturation of Cu,Zn SOD. But, such continued treatment also has the potential to cause toxicity due to greater copper intake. Furthermore, given the negative reduction potential of CuATSM, it is very difficult to reduce, which is reflected in the slow efficacy in replenishing SOD and COX extending over weeks. As a consequence, the majority of CuATSM (e.g., >95%) is eliminated in urine with copper still bound. […] See, for example, FIG. 3, which illustrates reduction (left) versus oxidation standard potentials (right) for ligand components (as determined in anhydrous DMSO). […]

In the next data set the test system is Cu,Zn SOD (human SOD). The data set is described as follows: Mass spectrometric assay of mature/immature SOD in CNS tissue of treated CCS×SOD^WT transgenic mice. The settings on record: CSS×SOD^WT transgenic mice; for increase in mature SOD compared to untreated SOD^WT mice: FIG. 4. In kind it is in vivo. As for the experimental part:
Tissue Preparation for SOD and Cytochrome c Oxidase assays—Whole brains and spinal cords were rapidly dissected from euthanized transgenic mice, immediately frozen in liquid nitrogen, and then stored at −80° C. until use. To prepare brain tissue for mass spectrometry or cytochrome c oxidase assay, frozen brains were first placed on a plate on top of a slab of dry ice so that the brittle frozen tissue could warm to a temperature that allowed sectioning with a razor blade (approx. −10° C.). Motor cortex and surrounding cerebrum was then sectioned to a thickness of approximately 1 mm with a razor blade. A 500 μm biopsy needle was used to isolate three ˜250 μg punches from each mouse tissue, which provided technical replicates for mass spectrometry and cytochrome c oxidase examples. Tissue punches were weighed using a Cahn 25 Automatic Electrobalance (Cerritos, CA, USA) with a sensitivity of ±0.1 μg. Tissue punches were homogenized for 12 seconds using a VWR Handheld cordless motorized homogenizer to a concentration of 5 μg tissue/μl of homogenization buffer. Homogenization buffer (made fresh daily) was 10 mM ammonium acetate, pH 5.0-5.1. For SOD measurements, 300 nM bovine SOD (Sigma) was added as an internal standard. The ratio of human SOD to the bovine SOD internal standard was used to calculate the concentration of human SOD detected in mouse tissue. After homogenizing, samples were centrifuged for 2 minutes at 16000×g at 4° C. in an Eppendorf 5415 R centrifuge to pellet cell debris. Supernatant was transferred to a clean tube for mass spectrometry or cytochrome c oxidase assays. […]
An LTQ-FT Ultra hybrid linear ion trap-Fourier transform ion cyclotron resonance mass spectrometer (Thermo, San Jose, Calif.) with a Finnigan Ion Max API source configured for electrospray ionization (ESI) in positive ion mode was used for all mass spectrometry experiments. All SOD quantitation was performed using the linear ion trap with scan range of 800 to 2000 m/z, which allowed for detection of SOD multiple charge states +9 through +13. […]
Data were quantified in a custom Matlab program. […]

Data set [2] can be described thus: Elimination of CuATSM in urine. The settings on record: in vivo. An excerpt:
This crystallization and high melting point create issues with forming an orally-active CuATSM compound and prevents the use of solid dispersant methods to formulate the complex for oral delivery. As such, producing formulations having appropriate dosage limits of CuATSM remains a limitation in using this compound therapeutically, particularly in view of CuATSM's propensity to gradually crystalize out of matrices and form insoluble crystals. Large amounts of crystallized CuATSM passes into the bowels, and thereby contributes to gastrointestinal distress. […]
The low reduction potential or, phrased differently, the high copper affinity of the ATSM ligand for cupric ion (in the 2+ ionization state) prevents copper release in most tissues, but allows selective release of copper in hypoxic tissues or in cells with damaged mitochondrial electron transport chains; however, even slight modifications of the CuATSM compound (e.g., removing one or both methyl groups from the carbon atoms of the diimine functional groups) results in rapid copper release that can result in toxicity in SOD ALS models. […] See, for example, FIG. 3, which illustrates reduction (left) versus oxidation standard potentials (right) for ligand components (as determined in anhydrous DMSO). […]

The next data set has as its system cytochrome c oxidase. The data set is described as follows: Cytochrome c oxidase assay in brain and spinal cord of treated mice. The class given is in vivo. The settings on record: brain (FIG. 7A) and spinal cord (FIG. 7B); dermally with DMSO, 50 mg/kg/day once daily from four days of age, measured at day 21. The method, then: Tissue Preparation for SOD and Cytochrome c Oxidase assays—Whole brains and spinal cords were rapidly dissected from euthanized transgenic mice, immediately frozen in liquid nitrogen, and then stored at −80° C. until use. To prepare brain tissue for mass spectrometry or cytochrome c oxidase assay, frozen brains were first placed on a plate on top of a slab of dry ice so that the brittle frozen tissue could warm to a temperature that allowed sectioning with a razor blade (approx. −10° C.). Motor cortex and surrounding cerebrum was then sectioned to a thickness of approximately 1 mm with a razor blade. […] The ratio of human SOD to the bovine SOD internal standard was used to calculate the concentration of human SOD detected in mouse tissue. […]
Cytochrome c oxidase assay—The assay buffer included 30 uM reduced cytochrome c in 50 mM potassium phosphate buffer pH 7.0 containing 20 μM EDTA and 24 units/ml catalase. The final dilution of reduced cytochrome c stock should yield an absorbance at 550 nm of 0.7. […] To minimize interference from turbidity, the absorbance at 550 nm minus the absorbance at 580 nm was monitored. The change in absorbance was measured for one minute. Then, 2 μl of 100 mM sodium cyanide and the absorbance change was monitored for another 20 seconds. […]

The next data set deals with G93A SOD×CCS mice. Kind of data set: Survival of G93A SOD×CCS mice under treatment. In kind it is in vivo. The method, then:
In this example, G93A SOD×CCS mice were treated with 50 mg/kg/day of CuPhMeTSM transdermally starting at 4 days of age. The compound was able to keep six G93A SOD×CCS mice alive for 300 days (n=6). Results are illustrated in FIG. 10.

The test system of another data set is juvenile mice. Kind of data set: Effect of free ligands on growth of juvenile mice. In kind it is in vivo. An excerpt: Another limitation is that the ATSM ligand component of the CuATSM complex is pharmacologically active in binding metals and thus can react in potentially undesirable side reactions.

In the case of `CN=C([S-])N/N=C(C)/C(C)=N/NC([S-])=NC.[Cu+2]` [CuATSM], the “oxidation wave: oxidized more easily than CuPhMeTSM by” value in data set [1] is around 40 mV. The “increase in mature SOD compared to untreated SOD^WT mice” value in the data set with Cu,Zn SOD (human SOD) came out at 13 µM. For the same compound, in data set [2], the “fraction eliminated in urine with copper still bound” value was above 95%.

Turning to `CNC1=NN=C(C)C(c2ccccc2)=NN=C(NC)[S][Cu][S]1` [CuPhMeTSM, copper phenylmethylTSM], the “increase in mature SOD compared to untreated SOD^WT mice” value in the data set with Cu,Zn SOD (human SOD) worked out at 60 µM. Also, the “decrease in amount of immature SOD” value with Cu,Zn SOD (human SOD) (FIG. 6) is on record as “decreased most”. Further, the “increase in COX activity” value in the data set on cytochrome c oxidase is “nearly twice the extent of CuATSM”. In the data set with G93A SOD×CCS mice (G93A SOD×CCS mice, 50 mg/kg/day transdermally from 4 days of age), the “toxicity from the treatment” value is “no toxicity apparent”. For the same compound, the “time mice were kept alive” value in the data set with G93A SOD×CCS mice (G93A SOD×CCS mice, 50 mg/kg/day transdermally from 4 days of age, n=6) turned out to be 300 days. The “mice still alive after receiving treatment” value with G93A SOD×CCS mice (low expressing G93A SOD mice crossed to CCS overexpressing mice, 50 mg/kg/day after four days of age, FIG. 10) is “nine out of 11”.

For the compound `CN/C(S)=N/N=C/C=N/N=C(\S)NC` [GTSM], the “effect on growth of juvenile mice” value in the data set with juvenile mice is on record as “significant delay in growth”.

Turning to `CN/C(S)=N/N=C/C(C)=N/N=C(\S)NC` [PTSM], the “effect on growth of juvenile mice” value with juvenile mice is on record as “significant delay in growth”.

As for “copper 4-nitrophenylmethylTSM [nitro analog]”, in the data set with cytochrome c oxidase, the “increase in COX activity” value is given as “not as effective as the CuPhMeTSM embodiment”.

The record behind these values is patent US12403159B2, “Therapeutic metal complexes and ligands and methods of making and using the same” (Oregon State University, priority 2017, dated 2025).
